Assay results from patent US20250170172A1, “METHODS FOR TREATING LENTIVIRUS INFECTION” (Jericho Sciences, LLC, priority 2022, published 2025).

Tests used:
[1] = test system: zinc binding domain of nucleocapsid protein peptide; assay: MALDI-TOF competitive binding to nucleocapsid protein peptide in presence of zinc; parameters: species or system HIV; details: equimolar ~2×10^−4 Molar in saline, with and without zinc
Description: FIG. 1 illustrates in vitro competitive binding of FX101 to the zinc binding domain of nucleocapsid protein peptide in the presence of zinc ions using Matrix-assisted laser desorption ionization (MALDI)—time of flight (TOF) analyses. Mixtures were prepared in equimolar concentrations of ˜2×10^−4 Molar solutions in saline. […] Mass Spectrometer: Voyager DE STR (Applied Biosystems). Software: Voyager Instrument Control Panel (v 5.1) and Data Explorer (v4.0) Instrument Method: (a) ACTH_Reflector_Aug24_2010; Accelerating voltage 25000; Grid voltage 63.8%; Mirror voltage ratio1.12, Laser Rep Rate 20.0 Hz Band width 500: Vertical Scale 50, Bin size 0.5: Acquisition mass range 800-4000 Da; Delay 155, 165, or […], Laser Intensity 1480-1590. (b) angiotensine.bic, 75 nsec delay time Calibration: C1 or C2 standards in DHB matrix. Matrix: DHB (Laser BioLabs, France), 10 mg/ml in (a) 50% acetonitrile/50% water-0.1% TFA/50% water, no TFA, and (b) 50% ethanol/50% water, no TFA. Spotted: 0.5 μL sample.
The nucleocapsid protein (NC) of HIV is an established but elusive therapeutic target for HIV infection. Currently available antiretroviral drugs predominately target viral enzymes involved in replication, including reverse transcriptase, integrase and protease. Recently, a new drug class targeting the structural capsid protein has been approved. […]

[2] = test system: SIVmac251; assay: Plasma viremia by TAQMAN RT-PCR in SIVmac251-infected Rhesus macaques; assay type: in vivo, Rhesus macaque (Macaca Mulatta); details: monotherapy 3.0 mg/kg 3 times weekly, subcutaneous
Description: Twenty-four specific pathogen-free (SPF), all male, Rhesus macaque (Macaca Mulatta) nonhuman primates (NHPs) of Indian origin were utilized for this study. The animals were tested to be free from simian type D retrovirus (SRV), simian immunodeficiency virus (SIV), simian T-cell lymphotropic/leukemia virus (STLV) and Cercopithecine herpesvirus 1 (CHV-1) at study initiation. All animals were pre-screened as negative for the protective MHC class I alleles Mamu-A*01, Mamu-B*08, and Mamu-B*17 since these alleles are associated with elite control of SIV infection. All animal studies were approved by the appropriate Institutional Animal Care and Use Committee (IACUC).
Inoculation of NHPs with SIVmac251. […] Each animal was subsequently monitored.
The twenty-four (24) SIVmac251-infected Rhesus macaques were divided into four groups: (1) sham-treated controls (vehicle only); (2) FX101-treated; (3) combination antiretroviral therapy (cART)-treated and (4) FX101 plus cART-treated. […] Comparative evaluations between groups were determined to evaluate whether FX101 alone and/or in combination with cART safely reduces virus in plasma, CSF, tissue reservoirs and/or sanctuary sites. […] Comparative longitudinal clinical measures were assessed to evaluate the safety profile. […]
Determination of plasma and CSF Viral RNA Levels. The amount of RNA copies per ml was determined using a TAQMAN assay. […]

[3] = test system: IL-21 mRNA positive cells; assay: IL-21 mRNA positive cell frequency in lymph node and spleen by FISH; assay type: in vivo, Rhesus macaque (Macaca Mulatta); details: FX-only treated animals; lymph nodes and spleen
Description: (§1) The higher Tier 2 antibody productions indicated differences in germinal center capacities, so we performed (blinded) histochemical evaluation of axillary lymph node and spleen tissues collected at necropsy. Tissues were evaluated using fluorescent in situ hybridization (FISH) probes for each, IL-21 mRNA and SIV mRNA. Cells (stained with 4′,6-diamidino-2-phenylindole) were designated either positive or negative for each hybridization label. The frequency of positive cells was determined by dividing the positive signal by the total number of cells in the field of vision.
Immunohistochemistry and in situ hybridization of lymph node and spleen tissues collected at termination. Five μm formalin fixed paraffin embedded tissues sections were mounted on Superfrost Plus Microscope slides, baked overnight at 60° C. and passed through xylene, graded ethanol, and double distilled water to remove paraffin and rehydrate tissue sections. A microwave was used for heat induced epitope retrieval (HIER). […]
(§2) Quantification of fluorescent immunohistochemistry and in situ hybridization. […] Whole slide images were analyzed using HALO image analysis software v3.1 (Indica Labs, Albuquerque, NM). […] When quantifying SIV infected cells, areas with a dendritic pattern were excluded from the analysis. […] Comparison of treatment groups was assessed using a Mann-Whitney Test (2-tailed, nonparametric)

[4] = test system: SIV mRNA positive cells; assay: SIV mRNA positive cell frequency in lymph node and spleen by FISH; assay type: in vivo, Rhesus macaque (Macaca Mulatta); details: FX-only treatment group
Description: as §1, with “vision. […]” for “vision.”
as §2
The frequency of SIV positive cells per million cells was determined using fluorescent in situ hybridization (FISH) as described in Example 8. […]

[5] = Safety assessment in SIV-infected Rhesus macaques (blood counts, clinical chemistries, flow cytometry, necropsy, histochemistry); assay type: in vivo, Rhesus macaque (Macaca Mulatta); details: 3 mg/kg, 3 times weekly for up to 24 weeks, subcutaneous
Description: Antiviral treatments were initiated at 10 weeks post-infection after the initial inflammatory response had subsided. All drug treatments were administered subcutaneously to avoid repeated sedations of the animals. The control animals received vehicle only (10% dimethylsulfoxide in phosphate buffered saline, DMSO/PBS). The dual-treated group received equal dosing amounts and frequencies of FX101 (3.0 mg/kg, 3× weekly) and cART (daily); the cART treatment group received two nucleo(t/s)ide RT inhibitors (NRTIs), emtricitabine (FTC, 50 mg/kg) and tenofovir disoproxil fumarate (TDF, tenofovir prodrug, 5.1 mg/kg) plus one integrase strand transfer inhibitor (INSTI), dolutegravir (DTG, 2.5 mg/kg). […] Therapeutic cART treatments were administered for up to 24 total weeks, with animals followed for up to 27 weeks post cART cessation (˜1 year post infection). All animals were monitored daily for signs of adverse events during the study.
Safety was assessed by complete blood chemistries, clinical chemistries, flow cytometry, gross necropsies and histochemical tissue imaging. There were no apparent drug-related adverse events between treatment arms across these measures over the study timeline. However, since all the animals were SIV-infected, measures and observations outside of normal healthy expected ranges occurred. […]

[6] = test system: dengue virus; details: cited from earlier work
[7] = test system: Japanese encephalitis virus (JEV); details: cited from earlier work

| SMILES | binding to the nucleocapsid protein zinc domain peptide [1] | direct virus replication inhibition, plasma viremia during the treatment period [2] | frequencies of IL-21 mRNA positive cells versus control animals [3] | frequencies of virus in spleen and lymph nodes relative to the cART group [4] | adverse events / tolerability [5] | inhibition of dengue virus infection [6] | inhibition of Japanese encephalitis virus (JEV) infection [7] |
| --- | --- | --- | --- | --- | --- | --- | --- |
| [NH2][Pt]([NH2])([Cl])([Cl])([Cl])[N+](=O)[O-] [FX101] | binds to the peptide, even in the presence of zinc | no apparent direct virus replication inhibiting activities | higher than for the control animals in both lymph nodes and spleen | very low frequencies of virus in both spleen and lymph nodes | safe and well tolerated | – | – |
| c1ccc(CN(CCN(Cc2ccccn2)Cc2ccccn2)Cc2ccccn2)nc1 [TPEN, N,N,N′,N′-tetrakis(2-pyridinylmethyl)-1,2-ethanediamine] | – | – | – | – | – | inhibits dengue virus | inhibits dengue virus and Japanese encephalitis virus (JEV) infection |
